Test results taken from patent US8664225B2, “1-[2-(2,4-dimethylphenylsulfanyl)-phenyl] piperazine as a compound with combined serotonin reuptake, 5-HT3 and 5-HT1A activity for the treatment of pain or residual symptoms in depression relating to sleep and cognition” (H. Lundbeck A/S, priority 2007, dated 2014).

What was measured:
mice = experiment: Mouse intradermal formalin test; assay type: in vivo; settings: formalin 4.5% into hind paw
Method: In this model, mice receive an injection of formalin (4.5%, 20 μl) into the left hind paw. The irritation caused by the formalin injection elicits a characteristic biphasic behavioural response, as quantified by the amount of time spent licking the injured paw. The first phase (˜0-10 minutes) represents direct chemical irritation and nociception, whereas the second (˜20-30 minutes) is thought to represent pain of neuropathic origin. The two phases are separated by a quiescent period in which behaviour returns to normal. The effectiveness of test compounds to reduce the painful stimuli is assessed by counting the amount of time spent licking the injured paw in the two phases.

Rat 5-HT3 receptor = molecular target: T1, Rat 5-HT3 receptor (Rattus norvegicus, UniProt P35563); experiment: Rat 5-HT3 receptor functional assay (antagonism); assay type: biochemical
T1 sequence (P35563 24-483): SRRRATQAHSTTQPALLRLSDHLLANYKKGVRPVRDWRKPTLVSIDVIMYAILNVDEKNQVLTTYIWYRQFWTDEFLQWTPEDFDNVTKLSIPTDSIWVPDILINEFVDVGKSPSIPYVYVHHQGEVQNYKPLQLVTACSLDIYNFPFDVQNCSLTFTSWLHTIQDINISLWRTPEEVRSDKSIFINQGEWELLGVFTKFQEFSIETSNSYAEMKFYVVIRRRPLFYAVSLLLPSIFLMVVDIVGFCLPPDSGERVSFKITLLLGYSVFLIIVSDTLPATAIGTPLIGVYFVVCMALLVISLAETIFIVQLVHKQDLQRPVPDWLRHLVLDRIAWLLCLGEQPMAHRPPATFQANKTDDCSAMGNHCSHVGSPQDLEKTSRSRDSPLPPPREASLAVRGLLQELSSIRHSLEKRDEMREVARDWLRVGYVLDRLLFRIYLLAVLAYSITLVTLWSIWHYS

patients [1] = experiment: Clinical trial in patients, HAM-D sleep items 4, 5 and 6; assay type: in vivo, human; settings: 5 and 10 mg daily against placebo, 6 weeks, approximately 100 patients per arm, HBr salt, FIGS. 23-25
Method: (§1) The HAM-D scale may be used to assess the severity of depression in patients by means of a 24 items questionnaire. Item 4, 5 and 6 of the scale relate to how the patients sleep, i.e. is it easy to fall asleep (insomnia Early), does the patient wake up during the night (Insomnia Middle), and does the patient wake up early in the morning (Insomnia Late). The compound was tested at 5 and 10 mg daily against placebo with approximately 100 patients per arm.

healthy subjects = experiment: Clinical trials in healthy subjects, sexual dysfunction reported; assay type: in vivo, human; settings: of 114 healthy subjects exposed
patients [2] = experiment: Clinical trial in patients, sexually related adverse effects reported; assay type: in vivo, human; settings: approximately 100 patients
Method: as §1
This notion was further supported by clinical trials conducted in patients. The above mentioned clinical trial in patients also captured sexual adverse effects reported by the patients.

Human 5-HT3A receptor = molecular target: T2, Human 5-HT3A receptor (Homo sapiens, UniProt P46098); experiment: Human 5-HT3A receptor functional assay; assay type: biochemical; settings: read-out: IC50 (antagonism in functional assay)
T2 sequence (P46098 24-478): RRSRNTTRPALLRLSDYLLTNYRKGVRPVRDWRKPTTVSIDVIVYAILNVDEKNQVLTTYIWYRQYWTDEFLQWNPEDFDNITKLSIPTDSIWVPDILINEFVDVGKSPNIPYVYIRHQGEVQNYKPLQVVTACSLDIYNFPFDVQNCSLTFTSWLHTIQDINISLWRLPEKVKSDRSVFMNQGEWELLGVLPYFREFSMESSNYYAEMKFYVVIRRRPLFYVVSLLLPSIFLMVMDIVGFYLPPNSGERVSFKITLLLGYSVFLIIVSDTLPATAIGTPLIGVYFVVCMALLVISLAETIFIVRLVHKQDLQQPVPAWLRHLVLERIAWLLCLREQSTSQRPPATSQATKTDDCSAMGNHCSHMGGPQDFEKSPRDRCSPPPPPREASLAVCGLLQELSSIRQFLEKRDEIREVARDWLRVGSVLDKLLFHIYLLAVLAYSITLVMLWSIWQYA

[3] = molecular target: Human serotonin transporter (Homo sapiens, UniProt P31645); experiment: Human serotonin transporter, blockade of 5-HT uptake; assay type: biochemical
human 5HT3 receptor = molecular target: T3, human 5HT3 receptor (Homo sapiens, UniProt P46098); experiment: Human 5HT3 receptor in vitro binding assay
T3 sequence (P46098 24-478): T2 sequence (P46098 24-478)

Sequence of Human serotonin transporter (P31645 whole entry): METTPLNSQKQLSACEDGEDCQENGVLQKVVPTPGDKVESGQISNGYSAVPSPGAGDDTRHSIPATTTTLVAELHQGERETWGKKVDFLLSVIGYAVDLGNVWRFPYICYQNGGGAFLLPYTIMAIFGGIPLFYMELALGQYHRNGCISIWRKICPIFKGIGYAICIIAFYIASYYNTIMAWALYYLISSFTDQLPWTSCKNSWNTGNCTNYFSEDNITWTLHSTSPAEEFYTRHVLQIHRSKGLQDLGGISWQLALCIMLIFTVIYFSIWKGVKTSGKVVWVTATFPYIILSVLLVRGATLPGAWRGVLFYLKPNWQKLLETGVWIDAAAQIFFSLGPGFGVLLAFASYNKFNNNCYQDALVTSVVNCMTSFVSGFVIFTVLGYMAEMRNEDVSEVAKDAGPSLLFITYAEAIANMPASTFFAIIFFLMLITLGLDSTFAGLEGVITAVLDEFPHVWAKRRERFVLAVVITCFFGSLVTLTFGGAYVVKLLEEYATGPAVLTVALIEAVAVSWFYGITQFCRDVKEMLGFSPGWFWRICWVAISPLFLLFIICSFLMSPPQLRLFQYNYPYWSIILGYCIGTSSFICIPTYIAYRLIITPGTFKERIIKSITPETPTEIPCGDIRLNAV

`Cc1ccc(Sc2ccccc2N2CCNCC2)c(C)c1` [compound I, 1-[2-(2,4-dimethylphenylsulfanyl)-phenyl]piperazine] was tested, and the “first phase scores (time spent licking the paw, 0-5 minutes)” value (mice; FIG. 18a, highest dose) was “significant reduction”, the “second phase pain scores (time spent licking the paw, 20-30 minutes)” value (mice; FIG. 18b) was “significant reduction” and the IC50 (Rat 5-HT3 receptor) was 0.2 nM. For the same compound, the “sleep pattern, HAM-D items 4, 5 and 6 (Insomnia Early, Middle, Late)” value (patients [1]) was “large and dose dependent improvement”, the “number of subjects reporting sexual dysfunction” value (healthy subjects) was “one” and the “number of patients reporting Anorgasmia” value (patients [2]; 5 mg daily) was 0. For the same compound, the “number of patients reporting Ejaculation delayed” value (patients [2]; 5 mg daily) was 0, the “number of patients reporting Erectile dysfunction” value (patients [2]; 5 mg daily) was 0 and the “number of patients reporting Libido decreased” value (patients [2]; 5 mg daily) was 1. The “number of patients reporting Loss of libido” value (patients [2]; 5 mg daily) was 1, the “number of patients reporting Orgasm abnormal” value (patients [2]; 5 mg daily) was 0 and the “number of patients reporting Orgasmic sensation decreased” value (patients [2]; 5 mg daily) was 0. The “number of patients reporting Anorgasmia” value (patients [2]; 10 mg daily) was 0, the “number of patients reporting Ejaculation delayed” value (patients [2]; 10 mg daily) was 0 and the “number of patients reporting Erectile dysfunction” value (patients [2]; 10 mg daily) was 0. For the same compound, the “number of patients reporting Libido decreased” value (patients [2]; 10 mg daily) was 1, the “number of patients reporting Loss of libido” value (patients [2]; 10 mg daily) was 0 and the “number of patients reporting Orgasm abnormal” value (patients [2]; 10 mg daily) was 0. For the same compound, the “number of patients reporting Orgasmic sensation decreased” value (patients [2]; 10 mg daily) was 0, the IC50 (Human 5-HT3A receptor) was about 20 nM and the IC50 [3] was 40 nM. For the same compound, the Ki (human 5HT3 receptor) was 4.5 nM.
